system: established adjuvant-induced arthritis in rats; assay: Established adjuvant-induced arthritis in rats (therapeutic, paw volume); type: in vivo, Charles River Lewis male rats; conditions: 9 mg./kg., oral

In the case of `CS(=O)(=O)c1nc(-c2ccccc2)c(-c2ccc(F)cc2)[nH]1` [Example 141], the “percent (%) reduction in paw volume measured at the indicated dose” value (shortened to “percent (%) reduction in paw volume”) is reported as 26%.

same assay, conditions: 10 mg./kg., oral

Compared with `CCOc1ccc(-c2[nH]c(SC(F)(F)C(F)F)nc2-c2ccccc2)cc1` [Example 118], `Cc1ccc(-c2[nH]c(S(=O)(=O)C(F)(F)C(F)F)nc2-c2ccc(Cl)cc2)cc1` [Example 131] is higher in “percent (%) reduction in paw volume” value: 32% for the first, 36% for the second.

`CS(=O)(=O)c1nc(-c2ccccc2)c(-c2cccc(Cl)c2)[nH]1` [Example 149] was tested, and the “percent (%) reduction in paw volume” value was 55%.

same assay, conditions: 25 mg./kg., oral

With `CSc1nc(-c2ccccc2)c(-c2ccc(Cl)c(Cl)c2)[nH]1` [Example 112] the “percent (%) reduction in paw volume” value was 62%.

same assay, conditions: 50 mg./kg., oral

First: CCCCS(=O)(=O)c1nc(-c2ccc(OC)cc2)c(-c2ccc(OC)cc2)[nH]1 [Example 129]
Second: CCOc1ccc(-c2[nH]c(S(C)(=O)=O)nc2-c2ccccc2)cc1 [Example 138]
The “percent (%) reduction in paw volume” value of the first is higher: 71% for the first, 41% for the second.

same assay, conditions: 75 mg./kg., oral

With `CS(=O)(=O)c1nc(-c2ccccc2)c(-c2cccc(F)c2)[nH]1` [Example 147] the “percent (%) reduction in paw volume” value was 32%.

same assay, conditions: 100 mg./kg., oral

For `C[S+]([O-])c1nc(-c2ccccc2)c(-c2cccc(F)c2)[nH]1` (stereo not drawn) [Example 148], the “percent (%) reduction in paw volume” value was 67%.

same assay, conditions: Rattus norvegicus, po, established arthritis, 7 daily doses, ED50% decrease from control paw volume, Tables I-III, read-out: Adjuvant Arthritis (ED50%)

Compared with `Fc1ccc(-c2nc(SC(F)(F)C(F)F)[nH]c2-c2ccc(F)cc2)cc1` [Example 40], `Fc1ccc(-c2[nH]c(SC(F)(F)C(F)F)nc2-c2ccc(Cl)cc2)cc1` [Example 42] is 2.4-fold higher in ED50: 0.075 mg/kg for the first, 0.18 mg/kg for the second.

First: O=S(=O)(c1nc(-c2ccccc2Cl)c(-c2ccccc2Cl)[nH]1)C(F)(F)C(F)F [Example 91]
Second: O=S(=O)(c1nc(-c2ccccc2)c(-c2cccc(Cl)c2)[nH]1)C(F)(F)C(F)F [Example 144]
The ED50 of the first is 16-fold higher: 0.8 mg/kg for the first, 0.05 mg/kg for the second.

Compared with `COc1ccc(-c2nc(SC(F)(F)F)[nH]c2-c2ccc(F)cc2)cc1` [Example 109], `COc1ccc(-c2[nH]c(SC(F)(F)C(F)F)nc2-c2ccc(F)cc2)cc1` [Example 117] is 5.2-fold higher in ED50: 2.7 mg/kg for the first, 14 mg/kg for the second.

First: FC(F)C(F)(F)Sc1nc(-c2ccc(C(F)(F)F)cc2)c(-c2ccccc2)[nH]1 [Example 47]
Second: Fc1ccc(-c2nc(SC(F)(F)C(F)F)[nH]c2-c2ccc(C(F)(F)F)cc2)cc1 [Example 48]
The ED50 of the first is 3-fold higher: 4.5 mg/kg for the first, 1.5 mg/kg for the second.

Compared with `O=S(=O)(c1nc(-c2ccccc2)c(-c2ccccc2)[nH]1)C(F)(F)C(F)Br` (stereo not drawn) [Example 126], `O=S(=O)(c1nc(-c2ccccc2)c(-c2ccccc2)[nH]1)C(F)(F)C(F)Cl` (stereo not drawn) [Example 73] is 3.4-fold lower in ED50: 0.85 mg/kg for the first, 0.25 mg/kg for the second.

`COc1ccc(-c2nc(S(C)(=O)=O)[nH]c2-c2ccc(OC)cc2)cc1` [Example 57] and `CCS(=O)(=O)c1nc(-c2ccc(OC)cc2)c(-c2ccc(OC)cc2)[nH]1` [Example 14, 2-Ethylsulfonyl-4,5-bis(4-methoxyphenyl)imidazole] are within 1.5-fold of each other in ED50: 6.4 mg/kg for the first, 5.2 mg/kg for the second.

First: COc1ccc(-c2nc(S(=O)(=O)C(F)(F)C(F)I)[nH]c2-c2ccc(OC)cc2)cc1 (stereo not drawn) [Example 128]
Second: COc1ccc(-c2nc(S(=O)(=O)C(C)C)[nH]c2-c2ccc(OC)cc2)cc1 [Example 63]
The ED50 of the first is 10-fold lower: 3 mg/kg for the first, 30 mg/kg for the second.

Going from `COc1ccc(-c2nc(SCC(C)=O)[nH]c2-c2ccc(OC)cc2)cc1` [Example 16, 2-Acetonylthio-4,5-bis(4-methoxyphenyl)imidazole] to `CCSc1nc(-c2ccc(OC)cc2)c(-c2ccc(OC)cc2)[nH]1` [Example 10, 2-Ethylthio-4,5-bis(4-methoxyphenyl)imidazole], the ED50 falls from 9.4 mg/kg to 4.7 mg/kg (2-fold).

Going from `COc1ccc(-c2nc([S+](C)[O-])[nH]c2-c2ccc(OC)cc2)cc1` (stereo not drawn) [Example 56] to `C=CC[S+]([O-])c1nc(-c2ccc(OC)cc2)c(-c2ccc(OC)cc2)[nH]1` (stereo not drawn) [Example 54], the ED50 rises from 6.2 mg/kg to 11 mg/kg (1.8-fold).

Compared with `CSc1nc(-c2ccccc2)c(-c2cccc(F)c2)[nH]1` [Example 113], `CSc1nc(-c2ccc(C(F)(F)F)cc2)c(-c2ccccc2)[nH]1` [Example 34] is 2.5-fold lower in ED50: 50 mg/kg for the first, 20 mg/kg for the second.

Compared with `FC(F)C(F)(F)Sc1nc(-c2ccccc2)c(-c2ccc(Cl)c(Cl)c2)[nH]1` [Example 119], `FC(F)(F)Sc1nc(-c2ccccc2)c(-c2ccc(Cl)c(Cl)c2)[nH]1` [Example 111] is 2.3-fold higher in ED50: 3 mg/kg for the first, 7 mg/kg for the second.

Going from `O=S(=O)(CC(F)(F)F)c1nc(-c2ccc(F)cc2)c(-c2ccc(F)cc2)[nH]1` [Example 70] to `O=S(=O)(c1nc(-c2ccc(F)cc2)c(-c2ccc(F)cc2)[nH]1)C(F)(F)F` [Example 104, 4,5-bis(p-fluorophenyl)-2-trifluoromethylsulfonylimidazole], the ED50 falls from 3.5 mg/kg to 0.015 mg/kg (230-fold).

First: O=S(=O)(c1nc(-c2ccc(Cl)cc2)c(-c2ccc(Cl)cc2)[nH]1)C(F)(F)C(F)F [Example 69, 4,5-bis(4-chlorophenyl)-2-(1,1,2,2-tetrafluoroethylsulfonyl)imidazole]
Second: O=S(=O)(c1nc(-c2ccc(Cl)cc2)c(-c2ccc(Cl)cc2)[nH]1)C(F)F [Example 77]
The ED50 of the first is 1.7-fold lower: 0.2 mg/kg for the first, 0.35 mg/kg for the second.

First: O=S(=O)(c1nc(-c2ccccc2)c(-c2cccc(F)c2)[nH]1)C(F)(F)C(F)F [Example 143]
Second: O=S(=O)(c1nc(-c2ccc(F)cc2)c(-c2ccccc2)[nH]1)C(F)(F)C(F)F [Example 92, 4(or 5)-(4-fluorophenyl)-5(or 4)-phenyl-2-(1,1,2,2-tetrafluoroethylsulfonyl)imidazole]
The ED50 of the first is 2.2-fold higher: 0.06 mg/kg for the first, 0.027 mg/kg for the second.

Going from `FC(F)Sc1nc(-c2ccc(Cl)cc2)c(-c2ccc(Cl)cc2)[nH]1` [Example 31] to `CSc1nc(-c2ccc(Cl)cc2)c(-c2ccc(Cl)cc2)[nH]1` [Example 26, 4,5-bis(4-chlorophenyl)-2-methylthioimidazole], the ED50 rises from 0.35 mg/kg to 3 mg/kg (8.6-fold).

`COc1ccc(-c2nc(SC(F)(F)C(F)F)[nH]c2-c2ccc(OC)cc2)cc1` [Example 38] and `COc1ccc(-c2nc(SC)[nH]c2-c2ccc(OC)cc2)cc1` [Example 15, 4,5-bis(4-Methoxyphenyl)-2-methylthioimidazole] are within 1.5-fold of each other in ED50: 4.2 mg/kg for the first, 4.4 mg/kg for the second.

First: FC(F)Sc1nc(-c2ccccc2)c(-c2ccccc2)[nH]1 [Example 30]
Second: O=S(=O)(c1nc(-c2ccccc2)c(-c2ccccc2)[nH]1)C(F)F [Example 75]
The ED50 of the first is 60-fold higher: 21 mg/kg for the first, 0.35 mg/kg for the second.

First: CS(=O)(=O)c1nc(-c2ccc(Cl)cc2)c(-c2ccc(C(F)(F)F)cc2)[nH]1 [Example 88]
Second: CS(=O)(=O)c1nc(-c2ccc(F)cc2)c(-c2ccc(C(F)(F)F)cc2)[nH]1 [Example 87]
The ED50 of the first is 1.7-fold lower: 2.2 mg/kg for the first, 3.7 mg/kg for the second.

Compared with `CCCSc1nc(-c2ccc(OC)cc2)c(-c2ccc(OC)cc2)[nH]1` [Example 27], `C=CCSc1nc(-c2ccc(OC)cc2)c(-c2ccc(OC)cc2)[nH]1` [Example 11, 2-Allylthio-4,5-bis(4-methoxyphenyl)imidazole] is 2.4-fold higher in ED50: 9 mg/kg for the first, 22 mg/kg for the second.

Going from `Cc1ccc(-c2nc(SC(F)(F)C(F)F)[nH]c2-c2ccc(C)cc2)cc1` [Example 43] to `CN(C)c1ccc(-c2nc(SC(F)(F)C(F)F)[nH]c2-c2ccccc2)cc1` [Example 53], the ED50 falls from 18 mg/kg to 2.5 mg/kg (7.2-fold).

Compared with `FC(F)(F)CSc1nc(-c2ccc(Cl)cc2)c(-c2ccc(Cl)cc2)[nH]1` [Example 7, 4,5-bis(4-Chlorophenyl)-2-(2,2,2-trifluoroethylthio)imidazole], `[O-][S+](c1nc(-c2ccc(Cl)cc2)c(-c2ccc(Cl)cc2)[nH]1)C(F)F` (stereo not drawn) [Example 94] is 26-fold lower in ED50: 5 mg/kg for the first, 0.19 mg/kg for the second.

Compared with `O=S(=O)(c1nc(-c2cccc(Cl)c2)c(-c2cccc(Cl)c2)[nH]1)C(F)(F)C(F)F` [Example 93], `COc1cccc(-c2nc(S(=O)(=O)C(F)(F)C(F)F)[nH]c2-c2cccc(OC)c2)c1` [Example 84] is 25-fold higher in ED50: 0.16 mg/kg for the first, 4 mg/kg for the second.

First: O=S(=O)(c1nc(-c2ccc(C(F)(F)F)cc2)c(-c2ccccc2)[nH]1)C(F)(F)C(F)F [Example 89]
Second: Cc1ccc(-c2nc(S(=O)(=O)C(F)(F)C(F)F)[nH]c2-c2ccccc2)cc1 [Example 96]
The ED50 of the first is 4-fold higher: 2.4 mg/kg for the first, 0.6 mg/kg for the second.

Compared with `[O-][S+](c1nc(-c2ccccc2)c(-c2ccccc2)[nH]1)C(F)(F)C(F)F` (stereo not drawn) [Example 66], `O=S(=O)(c1nc(-c2ccccc2)c(-c2ccccc2)[nH]1)C(F)(F)F` [Example 103, 4,5-diphenyl-2-trifluoromethylsulfonylimidazole] is 6-fold lower in ED50: 0.18 mg/kg for the first, 0.03 mg/kg for the second.

First: CS(=O)(=O)c1nc(-c2ccc(Cl)cc2)c(-c2ccc(F)cc2)[nH]1 [Example 79]
Second: O=S(=O)(c1nc(-c2ccc(F)cc2)c(-c2ccc(F)cc2)[nH]1)C(F)F [Example 78]
The ED50 of the first is 28-fold higher: 2.8 mg/kg for the first, 0.1 mg/kg for the second.

Compared with `[O-][S+](c1nc(-c2ccc(F)cc2)c(-c2ccc(F)cc2)[nH]1)C(F)(F)C(F)F` (stereo not drawn) [Example 134], `Fc1ccc(-c2nc(SC(F)F)[nH]c2-c2ccc(F)cc2)cc1` [Example 32] is 7.6-fold higher in ED50: 0.055 mg/kg for the first, 0.42 mg/kg for the second.

Compared with `C[S+]([O-])c1nc(-c2ccccc2)c(-c2ccc(Cl)c(Cl)c2)[nH]1` (stereo not drawn) [Example 146], `FC(F)C(F)(F)Sc1nc(-c2ccc(Cl)cc2)c(-c2ccccc2)[nH]1` [Example 45] is 170-fold lower in ED50: 50 mg/kg for the first, 0.3 mg/kg for the second.

Compared with `CCCS(=O)(=O)c1nc(-c2ccc(OC)cc2)c(-c2ccc(OC)cc2)[nH]1` [Example 62], `COc1ccc(-c2nc(S(=O)(=O)CS(C)(=O)=O)[nH]c2-c2ccc(OC)cc2)cc1` [Example 99] is 6-fold higher in ED50: 9 mg/kg for the first, 54 mg/kg for the second.

First: O=S(=O)(c1nc(-c2ccccc2)c(-c2ccccc2)[nH]1)C(F)(F)CF [Example 124]
Second: O=S(=O)(c1nc(-c2ccccc2)c(-c2ccccc2)[nH]1)C(F)(F)C(Cl)Cl [Example 76]
The ED50 of the first is 10-fold lower: 0.15 mg/kg for the first, 1.5 mg/kg for the second.

Compared with `CSc1nc(-c2ccc(F)cc2)c(-c2ccc(C(F)(F)F)cc2)[nH]1` [Example 35], `Fc1ccc(-c2nc(SC(F)(F)C(F)(F)F)[nH]c2-c2ccc(F)cc2)cc1` [Example 110] is 85-fold lower in ED50: 17 mg/kg for the first, 0.2 mg/kg for the second.

`FC(F)C(F)(F)Sc1nc(-c2ccccc2Cl)c(-c2cccc(Cl)c2)[nH]1` [Example 50] gave an ED50 of 1.2 mg/kg.

same assay, conditions: established arthritis, oral, 7 daily doses; ED50% decrease from control paw volume; Tables I-III

For `FC(Br)C(F)(F)Sc1nc(-c2ccccc2)c(-c2ccccc2)[nH]1` (stereo not drawn) [Example 52, 2-(2-bromo-1,1,2-trifluoroethylthio)-4,5-diphenylimidazole], the “Adjuvant Arthritis (ED50%)” value was 11 mg/kg.

same assay, conditions: established arthritis, oral, 7 daily doses; ED50% decrease from control paw volume; Tables I-III; listed as 122

`CN(C)c1ccc(-c2nc(SC(F)(F)C(F)F)[nH]c2-c2ccccc2)cc1` [Example 53] was tested, and the “Adjuvant Arthritis (ED50%)” value was 4.0 mg/kg.
